Test results from article PMC9827630, “Intra-colony venom diversity contributes to maintaining eusociality in a cooperatively breeding ant” (BMC Biology, 2023).
Where no end group is shown, it is not given here.

Key:
[1] = tested on: F11; test: Ion permeability F11; assay type: cell-based, mouse; details: ions listed as permeant; - = none
[2] = tested on: Staphylococcus aureus ATCC 43300; test: Antimicrobial growth inhibition (CO-ADD); assay type: cell-based
Method: (§1) Antimicrobial and cytotoxicity assays were performed by CO-ADD (The Community for Antimicrobial Drug Discovery, Institute for Molecular Bioscience, The University of Queensland). […] Percentage growth inhibition was calculated using negative controls (media only) and positive controls (no peptide). For the hemolysis assays, human whole blood was washed three times with 3 volumes of 0.9% NaCl and then resuspended in 0.9% NaCl to a concentration of 0.5 × 10^8 cells/mL. Cells were incubated for 1 h at 37°C with or without the peptide. After incubation, plates were centrifuged at 1000 g for 10 min to pellet cells and debris and hemolysis determined by measuring the supernatant absorbance at 405 nm.

[3] = tested on: Pseudomonas aeruginosa ATCC 27853; test: Antimicrobial growth inhibition (CO-ADD); assay type: cell-based; details: percentage growth inhibition, absorbance at 600 nm; mean ± SEM
Method: as §1

[4] = tested on: Escherichia coli ATCC 25922; test: Antimicrobial growth inhibition (CO-ADD); assay type: cell-based; details: percentage growth inhibition, absorbance at 600 nm; mean ± SEM
Method: as §1

[5] = tested on: Acinetobacter baumannii ATCC 19606; test: Antimicrobial growth inhibition (CO-ADD); assay type: cell-based; details: percentage growth inhibition, absorbance at 600 nm; mean ± SEM
Method: as §1

[6] = tested on: Klebsiella pneumoniae ATCC 700603; test: Antimicrobial growth inhibition (CO-ADD); assay type: cell-based; details: percentage growth inhibition, absorbance at 600 nm; mean ± SEM
Method: as §1

[7] = tested on: Human red blood cells; test: Hemolysis assay (CO-ADD); assay type: cell-based; details: hemolysis, washed human blood 0.5 × 10^8 cells/mL in 0.9% NaCl, 1 h at 37°C, supernatant absorbance at 405 nm; mean ± SEM
Method: as §1

[8] = tested on: Female fruit flies (D. melanogaster strain Canton-S); test: Fruit fly injection assay (lethality, paralysis, climbing); assay type: in vivo, Drosophila melanogaster; details: 5 nmol/g injected, climbing assay 5 min after injection; significant versus control
Method: Female fruit flies (D. melanogaster strain Canton-S) were injected four to six days post-emergence. Female flies were used because their larger size makes injection easier. Groups of eight female flies were assayed in triplicate for each dose tested. Injection needles were formed from glass capillary tubes (#3-000-203-G/X, Drummond, Birmingham, AL, USA) using a micropipette puller (Sutter Instrument Co. Model P-97), with the fine tip manually trimmed afterwards using scissors. Needles then were filled with mineral oil, connected to a Nanoliter 2000 microinjector ([…], Bensenville, IL USA) equipped with a foot pedal, and ~1 μL of peptide solution or water aspirated. Each group of flies were immobilized by cooling for approximately 2 min on ice, and then decanted on the top of the ‘injection stage’, a petri dish filled with ice. Under a dissecting microscope, each fly was carefully impaled on the lateral thorax behind the wing, and 50.6 nL of venom peptide or water was injected. After injection, each group of flies were returned to their 5 mL plastic tube at room temperature and their behavior observed.

[9] = tested on: Candida albicans ATCC 90028; test: Antifungal growth inhibition (CO-ADD); assay type: cell-based; details: percentage growth inhibition, absorbance at 530 nm; mean ± SEM
Method: as §1

[10] = tested on: Cryptococcus neoformans var. grubii H99; ATCC 208821; test: Antifungal growth inhibition (CO-ADD); assay type: cell-based; details: percentage growth inhibition, difference in absorbance 600 and 570 nm after resazurin, 35°C 2 h; mean ± SEM
Method: as §1

[11] = tested on: MM96L cells (melanoma cell line); test: Cell viability assay, resazurin; assay type: cell-based; details: 100 μM peptide
Method: (§2) In addition to the cytotoxicity assays performed by CO-ADD, we screened the synthetic peptides for toxicity in cell viability assays using HAP1, MM96L, and HEK293T cells. peptides were reconstituted in 100% DMSO then diluted in cell media (HAP1: IMDM (Sigma Aldrich) with 10% FBS and 1% Penicillin/Streptomycin (P/S); MM96L: RPMI (Gibco) with 10% FBS, 1% P/S and 1% GlutaMAX (Gibco); HEK293T: DMEM high glucose (Gibco), with 10% FBS and 1% P/S. Trypsinized cells ([…]) were seeded in each well of a 96-well plate. 0.01 to 1000 μM peptide was added to each well after 24 h, and the cells incubated for an additional 74 h. After incubation, the medium was aspirated from each well and 150 μL of fresh medium containing a 0.002% solution of resazurin (Sigma-Aldrich) was added to the wells and incubated for 4 h at 37 °C. The absorbance was measured at 570 nm using a microplate spectrophotometer (FLUOstar Omega, BMG Labtech, Germany). Percentage cell viability at concentrations of 10 and 100 μM peptide were compared with negative control by one-way ANOVA Dunnett’s multiple comparisons test (GraphPad Prism8).

[12] = tested on: HAP1 cells; test: Cell viability assay, resazurin; assay type: cell-based
Method: as §2

[13] = tested on: HEK293T cells; test: Cell viability assay, resazurin; assay type: cell-based; details: 100 μM peptide
Method: as §2

[14] = tested on: panel of microbes; test: Antimicrobial screening, summary over the panel of microbes; assay type: cell-based; details: all strains of the panel (for Rm54a and Rm55a: strains other than S. aureus)
Method: as §1

[15] = tested on: HEK; test: Ion permeability HEK; assay type: cell-based, Human; details: ions listed as permeant; - = none
[16] = tested on: Human embryonic kidney cells ATCC CRL-1573; test: Cytotoxicity assay (CO-ADD), resazurin; assay type: cell-based; details: percentage growth inhibition, resazurin fluorescence, 37°C 5% CO2; mean ± SEM
Method: as §1

## LWPFLISLIPTVIDLARNL-NH2 [Rm54a]
[1]
  ion permeability F11: Ca2+,Na+,Th+
[2]
  Inhibition of S. aureus (in words): complete inhibition
[2]; percentage growth inhibition, absorbance at 600 nm, mean ± SEM
  Max response ± SEM: 102 ± 1
[3]
  Max response ± SEM: 16 ± 1
[4]
  Max response ± SEM: 10 ± 1
[5]
  Max response ± SEM: 22 ± 3
[6]
  Max response ± SEM: 10 ± 2
[7]
  Max response ± SEM: 95 ± 6
[8]
  Motor behavior (climbing assay): disrupted motor behavior
[9]
  Max response ± SEM: 10 ± 3
[10]
  Max response ± SEM: -15 ± 2
[11]
  Cytotoxicity against MM96L cells: not the melanoma cell line MM96L
[12]
  Cytotoxicity to HAP cells: cytotoxic to HAP cells
[12]; 10 μM peptide, n = 3 per group
  HAP cell viability: significantly reduced HAP cell viability
[13]
  Cytotoxicity against HEK293T cells: cytotoxic against HEK293T cells
[14]
  Growth inhibition over the microbial strains examined: not affecting any of the other strains examined
[15]
  ion permeability HEK: Ca2+,Na+,Th+
[16]
  Max response ± SEM: 95 ± 0
